# Like-named read-outs stand apart in the source and are kept apart here.
# What was measured:
# Pasteurella multocida [1] = test: Pasteurella infection in one-day-old chicks, subcutaneous administration (Table XII); assay type: in vivo; details: Administered subcutaneously, 30 mg/kg × 2, 1 and 4 hours post-challenge
# Summary of the method: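 One-day-old chicks were challenged subcutaneously with 0.1 ml of a 10^-4 dilution of a 20-h tryptose broth culture of avian P. multocida. Compounds were then given by subcutaneous injection at 30 mg/kg, at 1 and 4 hours post-challenge.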
# [2] = test system: Pasteurella hemolytica 22C; test: MIC, broth-dilution microtiter test (Table X); assay type: cell-based; details: read-out: MIC
# Text: (§1) The MIC's in Table X were obtained using conventional broth-dilution microtiter tests.
# [3] = test system: Pasteurella multocida 17E; test: MIC, broth-dilution microtiter test (Table X); assay type: cell-based; details: Bovine isolate, read-out: MIC
# Text: as §1
# [4] = test system: Mycoplasma hyopneumoniae S5972; test: MIC, broth-dilution microtiter test (Table X); assay type: cell-based; details: Mesomycoplasma hyopneumoniae, read-out: MIC
# Text: as §1
# [5] = test system: Pasteurella multocida 60A; test: MIC, broth-dilution microtiter test (Table X); assay type: cell-based; details: Avian isolate, read-out: MIC
# Text: as §1
# Streptococcus sp. 19F = test: MIC, broth-dilution microtiter test (Table X); assay type: cell-based; details: read-out: MIC
# Text: as §1
# Mycoplasma hyorhinis 29E = test: MIC, broth-dilution microtiter test (Table X); assay type: cell-based; details: read-out: MIC
# Text: as §1
# Staphylococcus aureus = test: MIC, broth-dilution microtiter test (Table X); assay type: cell-based; details: read-out: MIC
# Text: as §1
# [6] = test system: Mycoplasma gallisepticum 29C; test: MIC, broth-dilution microtiter test (Table X); assay type: cell-based; details: Mycoplasmoides gallisepticum, read-out: MIC
# Text: as §1
# Mycoplasma synoviae 40A = test: MIC, broth-dilution microtiter test (Table X); assay type: cell-based; details: Mycoplasmopsis synoviae, read-out: MIC
# Text: as §1
# [7] = test system: Streptococcus Group D X66; test: MIC, standard agar-dilution assay (Table IX); assay type: cell-based; details: read-out: MIC
# [8] = test system: Streptococcus pneumoniae Park I; test: MIC, standard agar-dilution assay (Table IX); assay type: cell-based; details: Streptococcus pneumoniae Park I; agar-dilution; read-out: MIC
# [9] = test system: Streptococcus pyogenes C203; test: ED50 in mice experimentally infected with S. pyogenes C203 (Table XI); assay type: in vivo; details: Streptococcus pyogenes, doses given 1 and 4 hours postinfection, read-out: ED50
# Summary of the method: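 Mice infected with S. pyogenes C203 received two doses of compound, 1 and 4 h post-infection. ED50 is the dose in mg/kg (per dose, ×2) protecting 50% of animals.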
# [10] = test system: Staphylococcus epidermidis 222; test: MIC, standard agar-dilution assay (Table IX); assay type: cell-based; details: read-out: MIC
# Pasteurella multocida [11] = test: Pasteurella infection in one-day-old chicks, medicated drinking water (Table XIII); assay type: in vivo; details: Administered in the available drinking water at 2 g/gal
# Summary of the method: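 One-day-old chicks were challenged subcutaneously with 0.1 ml of a 10^-4 dilution of a 20-hour tryptose broth culture of avian P. multocida. Compound was given in drinking water at 2 g/gal, available from 4 to 20 hours before challenge and throughout the 3-day test period.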
# [12] = test system: Streptococcus pyogenes C203; test: MIC, standard agar-dilution assay (Table IX); assay type: cell-based; details: read-out: MIC
# Klebsiella X26 = test: MIC, standard agar-dilution assay (Table IX); assay type: cell-based; details: read-out: MIC
# Group D strain 9960 = test: MIC, standard agar-dilution assay (Table IX); assay type: cell-based, Streptococcus Group D; details: tested using predecessor Group D strain 9960
# [13] = test system: Staphylococcus aureus X400; test: MIC, standard agar-dilution assay (Table IX); assay type: cell-based; details: Staphylococcus aureus X400, Methicillin-resistant strain, read-out: MIC
# [14] = test system: Staphylococcus aureus V41; test: MIC, standard agar-dilution assay (Table IX); assay type: cell-based; details: Staphylococcus aureus V41, Penicillin-resistant strain, read-out: MIC
# [15] = test system: Staphylococcus aureus S13E; test: MIC, standard agar-dilution assay (Table IX); assay type: cell-based; details: Staphylococcus aureus, S13E
# Escherichia coli EC14 = test: MIC, standard agar-dilution assay (Table IX); assay type: cell-based; details: read-out: MIC
# Escherichia coli N10 = test: MIC, standard agar-dilution assay (Table IX); assay type: cell-based; details: read-out: MIC
# [16] = test system: Haemophilus influenzae C.L.; test: MIC, standard agar-dilution assay (Table IX); assay type: cell-based; details: Ampicillin-sensitive strain, read-out: MIC
# Escherichia coli TEM = test: MIC, standard agar-dilution assay (Table IX); assay type: cell-based; details: read-out: MIC
# [17] = test system: Staphylococcus epidermidis EPI1; test: MIC, standard agar-dilution assay (Table IX); assay type: cell-based; details: Staphylococcus epidermidis EPI1; agar-dilution; read-out: MIC
# [18] = test system: Haemophilus influenzae 76; test: MIC, standard agar-dilution assay (Table IX); assay type: cell-based; details: Haemophilus influenzae 76, Ampicillin-resistant strain, read-out: MIC
# Staphyloccus aureus X1.1 = test: MIC, standard agar-dilution assay (Table IX); assay type: cell-based, Staphylococcus aureus; details: Staphylococcus aureus, read-out: MIC
# [19] = Titratable groups in 66% aqueous DMF (Tables XIV-XVI); assay type: physicochemical
# Text: ^c Run in 66% aqueous DMF
# ^d Run in 66% aqueous DMF
SMILES,MIC [2],MIC [3],MIC [4],MIC [5],MIC (Streptococcus sp. 19F),MIC (Mycoplasma hyorhinis 29E),MIC (Staphylococcus aureus),MIC [6],MIC (Mycoplasma synoviae 40A),MIC [7],MIC [8],"ED50 ([9]; C203, Oral)","ED50 ([9]; C203, sc, Subcutaneous)",MIC [10],MIC [12],MIC (Klebsiella X26),MIC (Group D strain 9960),MIC [13],MIC [14],MIC [15],also measured
"CCC1OC(=O)CC(O)C(C)C(OC2OC(C)C(O)C(N(C)C)C2O)C(CCN2CCC(c3ccccc3)CC2)CC(C)C(=O)C=CC(C)=CC1COC1OC(C)C(O)C(OC)C1OC (stereo not shown) [Compound D4, 20-DH-DO-20-(4-Phenylpiperidin-1-yl)desmycosin]",6.25 µg/mL,6.25 µg/mL,0.78 µg/mL,6.25 µg/mL,0.09 µg/mL,50 µg/mL,0.39 µg/mL,0.39 µg/mL,< 0.05 µg/mL,1 µg/mL,0.25 µg/mL,19 mg/kg,6 mg/kg,0.25 µg/mL,0.25 µg/mL,32 µg/mL,2 µg/mL,0.5 µg/mL,0.5 µg/mL,0.5 µg/mL,Number of Deaths/Number Treated (Pasteurella multocida [1]): 9/10; Number of Deaths/Number Treated (Pasteurella multocida [11]): 6/10; MIC (Escherichia coli EC14): 64 µg/mL; MIC (Escherichia coli N10): 64 µg/mL; MIC [16]: 8 µg/mL; MIC (Escherichia coli TEM): 32 µg/mL; MIC [17]: 0.5 µg/mL; MIC [18]: 8 µg/mL; MIC (Staphyloccus aureus X1.1): 0.5 µg/mL
CCC1OC(=O)CC(O)C(C)C(OC2OC(C)C(O)C(N(C)C)C2O)C(CCN2CCCCCCC2)CC(C)C(=O)C=CC(C)=CC1COC1OC(C)C(O)C(OC)C1OC (stereo not shown) [Compound D6],1.56 µg/mL,3.12 µg/mL,1.56 µg/mL,6.25 µg/mL,0.78 µg/mL,50 µg/mL,0.78 µg/mL,1.56 µg/mL,0.78 µg/mL,4 µg/mL,0.5 µg/mL,14 mg/kg,0.7 mg/kg,0.25 µg/mL,0.5 µg/mL,16 µg/mL,8 µg/mL,0.5 µg/mL,0.5 µg/mL,0.5 µg/mL,Titratable groups [19]: 7.3; Titratable groups (first value) [19]: 5.4; pKa ([19]; Titratable groups): 9.4; pKa ([19]; Titratable groups (first value)): 7.9; pKa ([19]; Titratable groups (third printed value)): 9.2; MIC (Escherichia coli EC14): 64 µg/mL; MIC (Escherichia coli N10): 64 µg/mL; MIC [16]: 16 µg/mL; MIC (Escherichia coli TEM): 16 µg/mL; MIC [17]: 5 µg/mL; MIC [18]: 16 µg/mL; MIC (Staphyloccus aureus X1.1): 0.5 µg/mL

# Source: patent publication US4820695A, “C-20-dihydro-deoxy-(cyclic amino)-derivatives of macrolide antibiotics” (priority 1987, dated 1989)
